# Values quoted from earlier work as cited in patent US20240058414A1, “METHODS OF TREATING MELANOCORTIN-4 RECEPTOR PATHWAY-ASSOCIATED DISORDERS” (RHYTHM PHARMACEUTICALS, INC., priority 2020, published 2024).
# Experiments:
# [1] = clinical trials; Chen et al. J. Clin. Endocrinol. Metab. 2015
# [2] = patients with POMC and LEPR deficiency obesity, earlier pivotal studies
structure (smiles),measurement,setting,value
"CC(=O)N[C@@H](CCCNC(=N)N)C(=O)N[C@H]1CSSC[C@@H](C(N)=O)NC(=O)[C@H](Cc2c[nH]c3ccccc23)NC(=O)[C@H](CCCNC(=N)N)NC(=O)[C@@H](Cc2ccccc2)NC(=O)[C@H](Cc2cnc[nH]2)NC(=O)[C@@H](C)NC1=O [setmelanotide, Ac-Arg-c(Cys-D-Ala-His-D-Phe-Arg-Trp-Cys)-NH2]",adverse effect on blood pressure,[1],has not been shown to adversely affect blood pressure
same,reduction in hunger,[2],statistically significant and clinically meaningful reduction in hunger
same,weight loss,[2],rapid and sustained significant and clinically meaningful weight loss
